Experimental data published in publication PMC10531311, “Anti-Inflammatory Activities of 8-Benzylaminoxanthines Showing High Adenosine A2A and Dual A1/A2A Receptor Affinity” (International Journal of Molecular Sciences, 2023).

How the values were obtained:
[1] = target: T1, human adenosine A1R (Homo sapiens, UniProt P30542); experiment: Radioligand binding at human adenosine A1 receptor vs. [3H]CCPA; details: for inhibition at 1 µM: CHO cells, read-out: A1R vs. [³H]CCPA % Inhibition ± SEM at 1 µM; for Ki: human recombinant receptor in CHO cells, read-out: A1R vs. [³H]CCPA Ki ± SEM
T1 construct: expressed in transfected cells; host or cells: CHO cells
T1 sequence (P30542 1-326): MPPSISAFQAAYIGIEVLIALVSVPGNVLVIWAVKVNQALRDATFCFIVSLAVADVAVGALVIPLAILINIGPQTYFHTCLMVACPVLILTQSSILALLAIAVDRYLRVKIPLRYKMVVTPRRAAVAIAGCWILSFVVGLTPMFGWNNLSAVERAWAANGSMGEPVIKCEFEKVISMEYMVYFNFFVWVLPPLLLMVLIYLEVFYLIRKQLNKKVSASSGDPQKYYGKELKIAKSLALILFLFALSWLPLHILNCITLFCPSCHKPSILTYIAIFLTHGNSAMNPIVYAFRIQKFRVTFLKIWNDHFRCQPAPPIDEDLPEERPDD
Method: (§1) Affinities for adenosine receptors were evaluated in radioligand binding assays as previously described. Human adenosine receptors were stably expressed in CHO cells. The following radioligands were used: [^3H]2-chloro-N^6-cyclopentyladenosine ([^3H]CCPA) for A1R; [^3H]3-(3-hydroxypropyl)-7-methyl-8-(m-methoxystyryl)-1-propargylxanthine ([^3H]MSX-2) for A2AR; [^3H]8-(4-(4-(4-chlorophenyl)piperazine-1-sulfonyl)phenyl)-1-propylxanthine ([^3H]PSB-603) for A2BR; [^3H]phenyl-8-ethyl-4-methyl-(8R)-4,5,7,8-tetrahydro-1H-imidazo [2,1-i]purine-5-one ([^3H]PSB-11) for A3R. Initially, compounds were tested at a concentration of 1 µM. […] At least three independent experiments were performed. Data were analyzed using GraphPad PRISM version 5.0 or higher (Graph Pad, San Diego, CA, USA). Ki were calculated using the Cheng–Prusoff equation.

[2] = target: T2, human adenosine A2AR (Homo sapiens, UniProt P29274); experiment: Radioligand binding at human adenosine A2A receptor vs. [3H]MSX-2; details: for Ki: human recombinant receptor in CHO cells, read-out: A2AR vs. [³H]MSX-2 Ki ± SEM
T2 construct: expressed in transfected cells; host or cells: CHO cells
T2 sequence (P29274 whole entry): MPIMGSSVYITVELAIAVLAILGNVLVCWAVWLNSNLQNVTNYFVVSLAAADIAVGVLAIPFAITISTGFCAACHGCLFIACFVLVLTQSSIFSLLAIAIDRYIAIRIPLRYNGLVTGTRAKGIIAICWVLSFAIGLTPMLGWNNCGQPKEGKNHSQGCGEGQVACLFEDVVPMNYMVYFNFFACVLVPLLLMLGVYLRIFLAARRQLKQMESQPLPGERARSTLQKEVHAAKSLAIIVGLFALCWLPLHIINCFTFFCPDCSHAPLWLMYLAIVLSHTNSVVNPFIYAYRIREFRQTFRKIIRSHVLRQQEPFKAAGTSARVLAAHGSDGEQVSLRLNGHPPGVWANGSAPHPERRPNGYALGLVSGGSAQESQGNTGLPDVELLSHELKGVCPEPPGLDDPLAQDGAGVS
Method: as §1

[3] = target: T3, human adenosine A2BR (Homo sapiens, UniProt P29275); experiment: Radioligand binding at human adenosine A2B receptor vs. [3H]PSB-603; details: for Ki: human recombinant receptor in CHO cells, read-out: A2BR vs. [³H]PSB-603 Ki ± SEM; for inhibition at 1 µM: CHO cells, read-out: A2BR vs. [³H]PSB-603 % Inhibition ± SEM at 1 µM
T3 construct: expressed in transfected cells; host or cells: CHO cells
T3 sequence (P29275 1-332): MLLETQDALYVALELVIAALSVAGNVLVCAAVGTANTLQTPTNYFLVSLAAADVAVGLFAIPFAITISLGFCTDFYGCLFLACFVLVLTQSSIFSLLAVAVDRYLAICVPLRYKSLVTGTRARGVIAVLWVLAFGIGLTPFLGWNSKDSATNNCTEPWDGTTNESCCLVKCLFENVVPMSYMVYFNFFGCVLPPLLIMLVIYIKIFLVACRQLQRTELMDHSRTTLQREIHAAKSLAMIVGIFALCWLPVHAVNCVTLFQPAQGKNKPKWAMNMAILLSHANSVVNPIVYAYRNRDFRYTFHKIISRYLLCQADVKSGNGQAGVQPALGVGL
Method: as §1

[4] = target: T4, human adenosine A3R (Homo sapiens, UniProt P0DMS8); experiment: Radioligand binding at human adenosine A3 receptor vs. [3H]PSB-11; details: for inhibition at 1 µM: CHO cells, read-out: A3R vs. [H³]PSB-11 % Inhibition ± SEM at 1 µM; for Ki: human recombinant receptor in CHO cells, read-out: A3R vs. [H³]PSB-11 Ki ± SEM
T4 construct: expressed in transfected cells; host or cells: CHO cells
T4 sequence (P0DMS8 1-318): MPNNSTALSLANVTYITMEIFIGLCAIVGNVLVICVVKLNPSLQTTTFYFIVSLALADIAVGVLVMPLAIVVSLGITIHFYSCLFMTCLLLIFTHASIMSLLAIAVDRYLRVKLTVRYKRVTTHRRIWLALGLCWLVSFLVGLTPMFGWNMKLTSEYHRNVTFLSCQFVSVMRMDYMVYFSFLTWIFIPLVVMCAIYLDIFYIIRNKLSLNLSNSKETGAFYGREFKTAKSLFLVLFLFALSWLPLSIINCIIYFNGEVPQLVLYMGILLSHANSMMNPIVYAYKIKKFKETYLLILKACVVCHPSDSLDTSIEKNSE
Method: as §1

[5] = target: T5, human MAO B (Homo sapiens, UniProt P27338); experiment: Human MAO B inhibition, fluorometric method; format: biochemical; details: mean of two independent experiments, read-out: % of hMAO B Inhibition at 1 µM
T5 sequence (P27338 1-520): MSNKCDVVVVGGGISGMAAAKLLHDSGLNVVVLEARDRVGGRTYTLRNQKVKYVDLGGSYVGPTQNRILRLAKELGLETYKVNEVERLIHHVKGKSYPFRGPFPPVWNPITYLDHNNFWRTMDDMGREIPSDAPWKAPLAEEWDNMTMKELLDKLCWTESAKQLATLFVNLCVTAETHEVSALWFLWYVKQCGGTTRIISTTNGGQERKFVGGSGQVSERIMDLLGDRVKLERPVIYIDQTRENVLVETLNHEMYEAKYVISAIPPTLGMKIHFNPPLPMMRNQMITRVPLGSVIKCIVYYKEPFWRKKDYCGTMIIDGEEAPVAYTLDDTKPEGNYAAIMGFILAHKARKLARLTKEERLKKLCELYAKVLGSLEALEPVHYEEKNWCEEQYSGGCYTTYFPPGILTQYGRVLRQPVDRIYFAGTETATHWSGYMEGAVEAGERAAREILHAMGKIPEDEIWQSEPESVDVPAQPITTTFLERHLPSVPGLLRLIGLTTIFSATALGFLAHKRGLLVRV
Method: The compounds were tested twice in duplicates at a concentration of 1 μM by fluorometric method as previously described. Paratyramine (200 μM) was used as a substrate for the enzyme. Safinamide (1 μM; reversible) and rasagiline (1 μM; irreversible) were used as reference inhibitors.

| inhibition at 1 µM [1] [%] | Ki [1] [nM] | Ki [2] [nM] | Ki [3] [nM] | inhibition at 1 µM [4] [%] | Ki [4] [nM] | inhibition at 1 µM [5] [%] | melting point [°C] | inhibition at 1 µM [3] [%] | A2AR vs. [³H]MSX-2 % Inhibition ± SEM at 1 µM ([2]; 1 µM, CHO cells) [%] | Compound |
| --- | --- | --- | --- | --- | --- | --- | --- | --- | --- | --- |
| 26 | > 1000 | 302 ± 34 | 832 ± 133 | 4 | > 1000 | 8 | 190 to 191 |  |  | CCCn1c(=O)c2c(nc(NCc3ccccc3Cl)n2C)n(C)c1=O [compound 5, 8-((2-Chlorobenzyl)amino)-3,7-dimethyl-1-propyl-3,7-dihydro-1H-purine-2,6-dione] |
| 30 | > 1000 | 361 ± 82 | > 1000 | 8 | > 1000 | 7 | 206 to 207 | 33 |  | CCCn1c(=O)c2c(nc(NCc3ccccc3Br)n2C)n(C)c1=O [compound 12, 8-((2-Bromobenzyl)amino)-3,7-dimethyl-1-propyl-3,7-dihydro-1H-purine-2,6-dione] |
| 32 | > 1000 | > 1000 | > 1000 | 6 | > 1000 | 15 | 224 to 226 | 21 | 47 ± 2 | CCCn1c(=O)c2c(nc(NCc3ccccc3F)n2C)n(C)c1=O [compound 13, 8-((2-Fluorobenzyl)amino)-3,7-dimethyl-1-propyl-3,7-dihydro-1H-purine-2,6-dione] |
| 29 | > 1000 | 124 ± 26 | 687 ± 147 | 18 | > 1000 | 9 | 241 to 243 |  |  | CCCn1c(=O)c2c(nc(NCc3c(F)cccc3Cl)n2C)n(C)c1=O [compound 14, 8-((2-Chloro-6-fluorobenzyl)amino)-3,7-dimethyl-1-propyl-3,7-dihydro-1H-purine-2,6-dione] |
| 40 | > 1000 | 588 ± 74 | > 1000 | 0 | > 1000 | 10 | 185 to 187 | 34 |  | CCCn1c(=O)c2c(nc(NCc3cccc(Cl)c3)n2C)n(C)c1=O [compound 15, 8-((3-Chlorobenzyl)amino)-3,7-dimethyl-1-propyl-3,7-dihydro-1H-purine-2,6-dione] |
|  | 340 ± 73 | 254 ± 59 | > 1000 | 11 | > 1000 | 11 | 220 to 222 | 30 |  | CCCn1c(=O)c2c(nc(NCc3cccc(Br)c3)n2C)n(C)c1=O [compound 16, 8-((3-Bromobenzyl)amino)-3,7-dimethyl-1-propyl-3,7-dihydro-1H-purine-2,6-dione] |
| 17 | > 1000 | 605 ± 120 | > 1000 | 6 | > 1000 | 5 | 173 to 175 | 20 |  | CCCn1c(=O)c2c(nc(NCc3cccc(OC)c3)n2C)n(C)c1=O [compound 17, 8-((3-methoxybenzyl)amino)-3,7-dimethyl-1-propyl-3,7-dihydro-1H-purine-2,6-dione] |
| 7 | > 1000 | 773 ± 127 | > 1000 | -5 | > 1000 | 2 | 200 to 201 | 17 |  | CCCn1c(=O)c2c(nc(NCc3ccc(OC)c(OC)c3)n2C)n(C)c1=O [compound 18, 8-((3,4-dimethoxybenzyl)amino)-3,7-dimethyl-1-propyl-3,7-dihydro-1H-purine-2,6-dione] |
| 44 | > 1000 | 137 ± 35 | > 1000 | 13 | > 1000 | 32 | 210 to 212 | 25 |  | C#CCn1c(=O)c2c(nc(NCc3ccccc3Br)n2C)n(C)c1=O [compound 20, 8-((2-Bromobenzyl)amino)-3,7-dimethyl-1-(prop-2-yn-1-yl)-3,7-dihydro-1H-purine-2,6-dione] |
|  | 353 ± 42 | 287 ± 90 | > 1000 | 21 | > 1000 | 8 | 224 to 226 | 41 |  | C#CCn1c(=O)c2c(nc(NCc3ccccc3F)n2C)n(C)c1=O [compound 21, 8-((2-Fluorobenzyl)amino)-3,7-dimethyl-1-(prop-2-yn-1-yl)-3,7-dihydro-1H-purine-2,6-dione] |
|  | 334 ± 122 | 126 ± 15 | > 1000 | 14 | > 1000 | 8 | 234 to 236 | 26 |  | C#CCn1c(=O)c2c(nc(NCc3cccc(Cl)c3)n2C)n(C)c1=O [compound 23, 8-((3-Chlorobenzyl)amino)-3,7-dimethyl-1-(prop-2-yn-1-yl)-3,7-dihydro-1H-purine-2,6-dione] |
|  | 460 ± 99 | 225 ± 40 | > 1000 | 0 | > 1000 | 11 | 217 to 219 | 35 |  | C#CCn1c(=O)c2c(nc(NCc3cccc(OC)c3)n2C)n(C)c1=O [compound 25, 8-((3-Methoxybenzyl)amino)-3,7-dimethyl-1-(prop-2-yn-1-yl)-3,7-dihydro-1H-purine-2,6-dione] |
| -2 | > 1000 | 108 ± 22 | > 1000 | 2 | > 1000 | 3 | 247 to 249 | 28 |  | C#CCn1c(=O)c2c(nc(NCc3ccc(OC)c(OC)c3)n2C)n(C)c1=O [compound 26, 8-((3,4-dimethoxybenzyl)amino)-3,7-dimethyl-1-(prop-2-yn-1-yl)-3,7-dihydro-1H-purine-2,6-dione] |
